Data as given in publication PMC4039119 (Oncotarget, 2014).
Read-outs that look alike come from different tables or passages of the source.

Tests used:
[1] = test system: non-small lung carcinoma tumor xenografts; conditions: 1mg/kg every alternate day for 5 weeks; cited from earlier work
[2] = test system: MDA-MB-231 orthotopic tumors; assay: Orthotopic breast tumor therapy model; format: in vivo, female athymic nude mice; conditions: 2mg/kg oral gavage every day
Description: Female athymic nude mice (4-6 weeks old) were obtained from Jackson Laboratories (Ban harbor, Maine, USA) and maintained under specific pathogen-free conditions. The use of athymic nude mice and their treatment was approved by the Institutional Animal Care and Use Committee (IACUC), Texas Tech University Health Sciences Center, and the experiments were conducted in strict compliance with the regulations. Mice were given antioxidant-free AIN-76A special diet (TestDiet, Richmond, IN) one week before starting the experiment. Exponentially growing MDA-MB-231 cells were harvested, washed and resuspended in PBS at a density of 50x10^6 cells per ml with 80% matrigel (BD Biosciences, San Jose, CA). A suspension of 0.1mL containing 5x10^6 cells was injected in the mammary fat pads of the recipient mice. Tumor volumes and animal weights were measured twice a week as described by us previously. When the tumors reached a size of about 50-80 mm^3, mice were randomly segregated into two groups with ten mice in each group. […] Mice were sacrificed on day 60 by CO2 overdose and death was confirmed by cervical dislocation in accordance with IACUC guidelines. The tumors were dissected out aseptically from each mouse, weighed and snap frozen in liquid-nitrogen for western blot analysis.

4T-1 cells = assay: Annexin V-FITC apoptosis assay; format: cell-based, murine; conditions: 4T-1, 75nM CuB for 72h
Description: (§1) Apoptosis assay was performed using a kit (BD Biosciences, CA) according to manufacturer's instructions. Approximately, 0.1x10^6 cells were plated in 6-well plate and left overnight for attachment. […] A 5.0μl of Annexin V-FITC and 5μl of propidium iodide (BD Biosciences, San Jose, CA) were added to the 100μl of suspension and incubated for additional 20 min at room temperature in dark. Total sample volume was made up to 200μl with binding buffer. Samples were analyzed by flow cytometer after vortexing (Accuri C6, MI).

4T-1 orthotopic tumors = assay: Orthotopic breast tumor therapy model; format: in vivo, female BALB/c mice; conditions: 1mg/kg i.p. every third day
Description: In another experiment, female BALB/c mice (4-6 weeks old) were obtained from Jackson Laboratories (Ban harbor, Maine, USA) and maintained under controlled humidity and temperature conditions. The use of BALB/c mice and their treatment was approved by the Institutional Animal Care and Use Committee (IACUC), Texas Tech University Health Sciences Center, and the experiments were conducted in strict compliance with the regulations. Exponentially growing 4T-1 cells were harvested, washed and re-suspended in PBS at a density of 1x10^6 cells per ml with 50% matrigel. A suspension of 0.1mL containing 0.1x10^6 cells was injected in the mammary fat pads of the recipient mice. Tumor volumes and animal weights were measured every alternate day as described by us previously. When the tumors reached a size of about 30-50 mm3, mice were randomly segregated into two groups with eight mice in each group. […] The control mice received vehicle alone. Mice were sacrificed on day 28 by CO2 overdose and death was confirmed by cervical dislocation in accordance with IACUC guidelines. The tumors were removed aseptically from each mouse, weighed and snap frozen in liquid-nitrogen for further analysis.

[3] = test system: normal human melanocyte epithelial (PIG1) cells; assay: Sulforhodamine B cell survival assay in normal cells; format: cell-based; conditions: 50nM CuB for 72h
Description: The cells were fixed with ice cold 10% trichloroacetic acid, washed and stained with sulforhodamine B (SRB) dye and the optical density was measured in Tris base solution using plate reader, after washing the dye with 1% acetic acid solution as described by us previously. […]
vivo breast tumor growth suppression – Gupta et al
24, 48h and 72h. Cell survival was measured with sulforhodamine B assay to estimate the IC50 values. The ex periments were repeated at least three times with 4 replicates in each ex periment. B. Comparison of the cell survival of PIG1 and the breast cancer cell lines at 50nM […]
(1 picture or pasted object on this page, not shown here)

[4] = test system: MDA-MB-231, SKBR3, MCF-7 and 4T-1 breast cancer cells; assay: Sulforhodamine B cell survival assay, range over the breast cancer cell panel; format: cell-based
Description: The cells were fixed with ice cold 10% trichloroacetic acid, washed and stained with sulforhodamine B (SRB) dye and the optical density was measured in Tris base solution using plate reader, after washing the dye with 1% acetic acid solution as described by us previously.

MCF-7 cells = assay: Annexin V-FITC apoptosis assay; format: cell-based, human; conditions: MCF-7, 75nM CuB for 72h
Description: as §1

MDA-MB-231 cells = assay: Annexin V-FITC apoptosis assay; format: cell-based, human; conditions: MDA-MB-231, 75nM CuB for 72h
Description: as §1

SKBR3 cells = assay: Annexin V-FITC apoptosis assay; format: cell-based, human; conditions: SKBR3, 75nM CuB for 72h
Description: as §1

[5] = test system: MDA-MB-231 orthotopic tumor; conditions: after 36 days, cited from earlier work
melanoma tumors = conditions: 1mg/kg intraperitoneal thrice a week, after 23 days; cited from earlier work
ITGA6 in 4T-1 cells = assay: Western blot of ITGA6 expression after TGFβ treatment; format: cell-based, murine
Description: (§2) Whole cell lysates were prepared using 4% (w/v) CHAPS buffer while tumor lysates were prepared by homogenizing the tumors in RIPA lysis buffer. Proteins from control and treated samples were subjected to SDS-PAGE and the segregated proteins were transferred to PVDF membrane. The membrane was developed as described by us previously. All antibodies used in the study were purchased from Cell signaling except HER2 (Abcam, Cambridge, MA), ITGB4 (Santacruz Biotechnology, Dallas, TX), TWIST (Santacruz Biotechnology, Dallas, TX), phospho Akt (S473) (Santacruz Biotechnology, Dallas, TX) and Caspase 3 (Santacruz Biotechnology, Dallas, TX).

[6] = test system: ITGA6 in MDA-MB-231 cells; assay: as above; format: cell-based, human
Description: as §2

Row | Substance | tumor volume reduction [1] [%] | tumor volume reduction as compared to control ([2]; day 60) [%] | tumor volume in treated group ([2]; day 60, n=10) [mm^3] | tumor weight less than control ([2]; tumors dissected at day 60) | apoptosis induced (cells) (4T-1 cells) | tumor weight reduction (4T-1 orthotopic tumors; day 28) [%] | tumor volume in treated group (4T-1 orthotopic tumors; day 28, n=8) [mm^3] | growth inhibition of PIG1 cells [3] | growth inhibition of cancer cell lines SKBR3, MDA-MB-231, MCF-7 and 4-T1 ([4]; 50nM CuB for 72h) | IC50 ([4]; after 48 and 72 h of treatment) [µM] | apoptosis induced (cells) (MCF-7 cells) | apoptosis induced (cells) (MDA-MB-231 cells) | apoptosis induced (cells) (SKBR3 cells) | tumor volume suppression ([5]; 0.5 mg/kg i.p.) [%] | tumor volume suppression ([5]; 1mg/kg i.p.) [%] | suppression of tumor growth (melanoma tumors) | increase of ITGA6 expression (ITGA6 in 4T-1 cells) | increase of ITGA6 expression [6]
1 | Cucurbitacin B [CuB] | 70 | 55 | 111.3±18.4 | about 53% | about 60% | 27 | 1446.7±142.6 | 20-30% | 50-70% | 0.018 to 0.05 | about 60% | about 60% | about 80% | 42 | 55 | about 50% |  | 
2 | TGFβ |  |  |  |  |  |  |  |  |  |  |  |  |  |  |  |  | about 1.5 fold | about 1.5 fold
